Measurements reported in ChEMBL document CHEMBL1157155, “Bioactive alkenylphenols from Piper obliquum” (Bioorg Med Chem, 2008).
≈ marks a conversion by molar mass, not a printed value. Calls of active or inactive are those of the source. The calls are words filed in the database; no cut-off is given here.

How the values were obtained:
[1] = test system: Staphylococcus epidermidis; assay: Antibacterial activity against Staphylococcus epidermis after 24 hrs by broth microdilution method; format: functional
Jurkat [2] = assay: (§1) Effect on NF-kappaB expressed in Jurkat 5.1 cells assessed as inhibition of TNF-alpha-induced HIV1-LTR transactivation preincubated for 15 mins by luciferase gene reporter assay; format: cell-based
Escherichia coli = assay: Antibacterial activity against Escherichia coli after 24 hrs by broth microdilution method; format: functional
Jurkat [3] = assay: Effect on NF-kappaB expressed in Jurkat 5.1 cells assessed as inhibition of TNF-alpha-induced IkappaBalpha phosphorylation at 10 uM preincubated for 15 mins by Western blot; format: cell-based
[4] = Effect on NF-kappaB expressed in HeLa-Tet-On cells assessed as inhibition of doxycyclin-induced HIV1-LTR transactivation preincubated for 15 mins by luciferase gene reporter assay; format: cell-based
[5] = as §1; format: cell-based
Jurkat [6] = assay: Effect on NF-kappaB expressed in Jurkat 5.1 cells assessed as inhibition of TNF-alpha-induced IkappaBalpha degradation at 10 uM preincubated for 15 mins by Western blot; format: cell-based

MIC [1] [µg/mL] | MIC (Escherichia coli) [µg/mL] | IC50 [5] [µM] | SMILES | Activity (Jurkat [2]) | Activity (Jurkat [3]) | Activity [4] | Activity (Jurkat [6])
50 (≈ 140 µM) | 100 (≈ 281 µM) |  | CC(C)=CCC/C(C)=C/CCC1(C)CC(=O)c2cc(C(=O)O)ccc2O1 (configuration not stated) | inactive |  |  | 
10 (≈ 26.7 µM) | 10 (≈ 26.7 µM) |  | COc1ccc(/C=C/C(=O)c2c(O)cc(OC)c(OC)c2OC)cc1OC | inactive |  |  | 
 |  |  | CC(C)=CCC/C(C)=C/CC/C(C)=C/Cc1cc(C(=O)O)ccc1O | inactive |  |  | 
2.5 (≈ 8.67 µM) | 5 (≈ 17.3 µM) |  | CCCCCCCCC/C=C/CCCc1ccc(O)cc1 [OBLIQUOL A] |  |  |  | 
5 (≈ 16.4 µM) | 5 (≈ 16.4 µM) | 5 | CCCCCCCCC/C=C/CCCc1ccc(O)c(O)c1 [OBLIQUOL B] |  | Active | inactive | Active

SMILES | MIC [1] [µg/mL] | MIC (Escherichia coli) [µg/mL] | IC50 [5] [µM] | Activity (Jurkat [2]) | Activity (Jurkat [3]) | Activity [4] | Activity (Jurkat [6])
CC1(C)S[C@@H]2[C@H](NC(=O)[C@H](N)c3ccccc3)C(=O)N2[C@H]1C(=O)O [AMPICILLIN] | 1 (≈ 2.86 µM) | 5 (≈ 14.3 µM) |  |  |  |  | 
